These results are taken from patent publication US7709643B2, “Synthesis of sodium narcistatin and related compounds” (Arizona Board of Regents, a body corporate of the State of …, priority 2005, dated 2010).

A short description of data set [1]: Aqueous solubility at 25° C. The format is physicochemical.
In another data set the test system is BXPC-3. In words: Human cancer cell line minipanel, Pancreas-a BXPC-3. The data set is classed as cell-based. How it is done:
(§1) The cyclic phosphate prodrugs, along with the parent compounds were evaluated against a minipanel of human cancer cell lines and murine P388 lymphocytic leukemia.

The next data set concerns MCF-7. The data set is described as follows: Human cancer cell line minipanel, Breast MCF-7. The format is cell-based. On the procedure: as §1
Another data set has as its system SF268. In words: Human cancer cell line minipanel, CNS SF268. The format is cell-based. How it is done: as §1
A further data set relates to NCI-H460. The data set is described as follows: Human cancer cell line minipanel, Lung-NSC NCI-H460. The data set is classed as cell-based. On the procedure:
as §1

For a further data set, the system named is KM20L2. In words: Human cancer cell line minipanel, Colon KM20L2. The data set is classed as cell-based. On the procedure: as §1
The next data set concerns DU-145. In words: Human cancer cell line minipanel, Prostate DU-145. The data set is classed as cell-based. How it is done:
as §1

The subject of data set [2] is minipanel of human cancer cell lines and murine P388 lymphocytic leukemia. The data set is described as follows: Minipanel of human cancer cell lines and murine P388 lymphocytic leukemia (summary in words). The format is cell-based. The settings on record: summary of the cancer cell line evaluations of Table 2. On the procedure:
as §1
The corresponding 3,5-cyclic phosphates were less inhibitory under the experimental conditions employed. However, cleavage of the phosphate groups is expected to be very effective in vivo and such anticancer evaluations are now underway as part of the further preclinical development of these new anticancer drug candidates. (Pettit, G. R., et al., J. Nat. Prod. 2003, 66, 92-96.), (Dowlati, A., et al., Cancer Research 2002, 62, 3408-3416.), (Dziba, J. M., et al., Thyroid 2002, 12, 1063-1070.), (Eikesdal, H. P., et al., Cancer Lett. 2002, 178, 209-217.), (Prise, V., et al., Int. J. Oncology 2002, 21, 717-726.), (Hill, S. A., et al., Int. J. Cancer 2002, 102, 70-74.)

The subject of data set [3] is NCI panel of cancer cell lines. The settings on record: J. Nat. Prod. 56:1682-1687, 1993; cited from earlier work.
The next data set relates to RNA viruses. The settings on record: J. Nat. Prod. 55:1569-1581; 1992; cited from earlier work.

In brackets after ≈: the same amount, converted by molar mass. A value given as a limit tells only on which side of the number the result lay.

On to `O=C1N[C@H]2[C@H](O)[C@H](O)[C@@H](O)C[C@@H]2c2cc3c(cc21)OCO3` (relative stereo) [1c, 7-deoxy-trans-dihydronarciclasine], for which, in data set [1], the “Aqueous Solubility 25° C.” value is <1000 µg/mL. For the same molecule, in the data set with BXPC-3, the “GI50 Pancreas-a BXPC-3” value is 0.046 µg/mL (≈ 0.157 µM). In addition, in the data set on MCF-7, the “GI50 Breast MCF-7” value is 0.034 µg/mL (≈ 0.116 µM). The “GI50 CNS SF268” value in the data set with SF268 amounted to 0.059 µg/mL (≈ 0.201 µM). The “GI50 Lung-NSC NCI-H460” value in the data set with NCI-H460 came out at 0.043 µg/mL (≈ 0.147 µM). Moreover, in the data set with KM20L2, the “GI50 Colon KM20L2” value turned out to be 0.051 µg/mL (≈ 0.174 µM). For the same molecule, the “GI50 Prostate DU-145” value in the data set with DU-145 was 0.040 µg/mL (≈ 0.136 µM). In data set [2], the “cancer cell growth inhibitory activity (in words)” value is “strong cancer cell growth inhibitory activity”.

Regarding `O=C1N[C@H]2[C@@H]3OP(=O)([O-])O[C@@H]3[C@@H](O)C[C@@H]2c2cc3c(c(O)c21)OCO3.[Na+]` (relative stereo) [compound 12, Sodium trans-dihydro-narcistatin], the “GI50 Pancreas-a BXPC-3” value in the data set with BXPC-3 was 5.6 µg/mL. The “GI50 Breast MCF-7” value with MCF-7 worked out at 4.6 µg/mL. The “GI50 CNS SF268” value in the data set with SF268 is 8.8 µg/mL. Further, the “GI50 Lung-NSC NCI-H460” value with NCI-H460 was determined as 7.8 µg/mL. In addition, the “GI50 Colon KM20L2” value in the data set with KM20L2 stood at 9.6 µg/mL. The “GI50 Prostate DU-145” value in the data set on DU-145 worked out at 5.2 µg/mL.

On to `O=C1N[C@@H]2C(=C[C@H](O)[C@H]3OP(=O)([O-])O[C@H]32)c2cc3c(cc21)OCO3.[Li+]` [10a, Lithium 7-Deoxy-narcistatin], for which the “GI50 Pancreas-a BXPC-3” value with BXPC-3 is >1 µg/mL. For the same molecule, the “GI50 Breast MCF-7” value in the data set with MCF-7 was >1 µg/mL. Moreover, the “GI50 CNS SF268” value with SF268 was >1 µg/mL. Further, the “GI50 Lung-NSC NCI-H460” value in the data set on NCI-H460 is >1 µg/mL. Moreover, in the data set on KM20L2, the “GI50 Colon KM20L2” value is >1 µg/mL. Moreover, the “GI50 Prostate DU-145” value in the data set on DU-145 was >1 µg/mL.

For `O=C1N[C@H]2[C@@H]3OP(=O)([O-])O[C@@H]3[C@@H](O)C[C@@H]2c2cc3c(cc21)OCO3.[K+]` (relative stereo) [11b, Potassium 7-deoxy-trans-dihydro-narcistatin], in the data set with BXPC-3, the “GI50 Pancreas-a BXPC-3” value is >1 µg/mL. Further, in the data set with MCF-7, the “GI50 Breast MCF-7” value is >1 µg/mL. Moreover, the “GI50 CNS SF268” value with SF268 was >1 µg/mL. Further, the “GI50 Lung-NSC NCI-H460” value in the data set with NCI-H460 was >1 µg/mL. Further, the “GI50 Colon KM20L2” value in the data set on KM20L2 is >1 µg/mL. The “GI50 Prostate DU-145” value with DU-145 was >1 µg/mL.

For the molecule `O=C1N[C@H]2[C@@H]3OP(=O)([O-])O[C@@H]3[C@@H](O)C[C@@H]2c2cc3c(cc21)OCO3.[Li+]` (relative stereo) [11a, Lithium 7-deoxy-trans-dihydro-narcistatin], the “GI50 Pancreas-a BXPC-3” value in the data set with BXPC-3 is >1 µg/mL. In the data set with MCF-7, the “GI50 Breast MCF-7” value was >1 µg/mL. In addition, in the data set with SF268, the “GI50 CNS SF268” value is >1 µg/mL. The “GI50 Lung-NSC NCI-H460” value in the data set on NCI-H460 was >1 µg/mL. In addition, the “GI50 Colon KM20L2” value in the data set on KM20L2 is >1 µg/mL. The “GI50 Prostate DU-145” value in the data set on DU-145 was >1 µg/mL.

`O=C1N[C@H]2[C@@H]3OP(=O)([O-])O[C@@H]3[C@@H](O)C[C@@H]2c2cc3c(c(O)c21)OCO3.[K+]` (relative stereo) [12b, Potassium trans-dihydro-narcistatin]: the “GI50 Pancreas-a BXPC-3” value in the data set on BXPC-3 was >1 µg/mL. The “GI50 Breast MCF-7” value with MCF-7 came out at 0.64 µg/mL. The “GI50 CNS SF268” value in the data set with SF268 is >1 µg/mL. Moreover, the “GI50 Lung-NSC NCI-H460” value in the data set on NCI-H460 was >1 µg/mL. Moreover, in the data set with KM20L2, the “GI50 Colon KM20L2” value was >1 µg/mL. Also, the “GI50 Prostate DU-145” value in the data set with DU-145 was found to be 0.54 µg/mL.

In general, GI50 refers to the concentration that inhibits growth by half. Turning to `O=C1NC2C(CC(O)C(O)C2O)c2cc3c(c(O)c21)OCO3` (stereo not drawn) [3a, cis-dihydronarciclasine, reference compound], in [3], the GI50 is 3800 nM. Further, in the data set on RNA viruses, the “activity against a range of RNA viruses” value is “completely inactive”.

Turning to `O=C1N[C@@H]2C(=C[C@H](O)[C@@H](O)[C@H]2O)c2cc3c(cc21)OCO3` [2c, 7-deoxynarciclasine, reference compound], the “Aqueous Solubility 25° C.” value in data set [1] was <1000 µg/mL. Besides, the “GI50 Pancreas-a BXPC-3” value in the data set on BXPC-3 is 0.070 µg/mL (≈ 0.24 µM). Moreover, the “GI50 Breast MCF-7” value in the data set on MCF-7 is 0.046 µg/mL (≈ 0.158 µM). In the data set on SF268, the “GI50 CNS SF268” value was 0.120 µg/mL (≈ 0.412 µM). For the same molecule, the “GI50 Lung-NSC NCI-H460” value in the data set with NCI-H460 was 0.053 µg/mL (≈ 0.182 µM). Further, the “GI50 Colon KM20L2” value in the data set with KM20L2 came to 0.084 µg/mL (≈ 0.288 µM). Further, the “GI50 Prostate DU-145” value in the data set on DU-145 came out at 0.051 µg/mL (≈ 0.175 µM).

As for `O=C1N[C@@H]2C(=C[C@H](O)[C@H]3OP(=O)([O-])O[C@H]32)c2cc3c(cc21)OCO3.[K+]` [10b, Potassium 7-Deoxy-narcistatin], the “GI50 Pancreas-a BXPC-3” value in the data set with BXPC-3 was >1 µg/mL. For the same molecule, the “GI50 Breast MCF-7” value in the data set on MCF-7 is >1 µg/mL. In addition, the “GI50 CNS SF268” value in the data set on SF268 was >1 µg/mL. In addition, the “GI50 Lung-NSC NCI-H460” value with NCI-H460 was >1 µg/mL. Also, the “GI50 Colon KM20L2” value with KM20L2 was >1 µg/mL. Moreover, the “GI50 Prostate DU-145” value in the data set with DU-145 is >1 µg/mL.

Consider `O=C1N[C@H]2[C@@H]3OP(=O)([O-])O[C@@H]3[C@@H](O)C[C@@H]2c2cc3c(cc21)OCO3.[Na+]` (relative stereo) [compound 11, Sodium 7-Deoxy-trans-dihydro-narcistatin], for which the “GI50 Pancreas-a BXPC-3” value in the data set on BXPC-3 is >10 µg/mL. The “GI50 Breast MCF-7” value with MCF-7 was found to be 7.2 µg/mL. In addition, the “GI50 CNS SF268” value with SF268 is >10 µg/mL. The “GI50 Lung-NSC NCI-H460” value with NCI-H460 is >10 µg/mL. The “GI50 Colon KM20L2” value in the data set on KM20L2 is >10 µg/mL. The “GI50 Prostate DU-145” value with DU-145 is >10 µg/mL.

On to `O=C1N[C@@H]2C(=C[C@H](O)[C@H]3OP(=O)([O-])O[C@H]32)c2cc3c(cc21)OCO3.[Na+]` [compound 10, Sodium 7-Deoxy-narcistatin], for which the “GI50 Pancreas-a BXPC-3” value in the data set with BXPC-3 turned out to be 5.3 µg/mL. The “GI50 Breast MCF-7” value in the data set on MCF-7 is 4.0 µg/mL. In addition, the “GI50 CNS SF268” value with SF268 was 6.3 µg/mL. Moreover, in the data set with NCI-H460, the “GI50 Lung-NSC NCI-H460” value came to 4.7 µg/mL. In addition, the “GI50 Colon KM20L2” value in the data set on KM20L2 was 5.6 µg/mL. Also, the “GI50 Prostate DU-145” value in the data set on DU-145 was found to be 3.9 µg/mL.

For the molecule `O=C1N[C@H]2[C@@H]3OP(=O)([O-])O[C@@H]3[C@@H](O)C[C@@H]2c2cc3c(c(O)c21)OCO3.[Li+]` (relative stereo) [12a, Lithium trans-dihydro-narcistatin], in the data set on BXPC-3, the “GI50 Pancreas-a BXPC-3” value was >1 µg/mL. In the data set with MCF-7, the “GI50 Breast MCF-7” value is >1 µg/mL. Moreover, the “GI50 CNS SF268” value in the data set on SF268 is >1 µg/mL. For the same molecule, in the data set on NCI-H460, the “GI50 Lung-NSC NCI-H460” value was >1 µg/mL. Further, the “GI50 Colon KM20L2” value in the data set with KM20L2 was >1 µg/mL. In the data set with DU-145, the “GI50 Prostate DU-145” value was >1 µg/mL.

With `O=C1N[C@H]2[C@H](O)[C@H](O)[C@@H](O)C[C@@H]2c2cc3c(c(O)c21)OCO3` (relative stereo) [1a, trans-dihydronarciclasine], the “Aqueous Solubility 25° C.” value in data set [1] is <1000 µg/mL. The “GI50 Pancreas-a BXPC-3” value with BXPC-3 was 0.012 µg/mL (≈ 0.0388 µM). The “GI50 Breast MCF-7” value in the data set with MCF-7 was determined as 0.0053 µg/mL (≈ 0.0171 µM). In addition, the “GI50 CNS SF268” value in the data set on SF268 turned out to be 0.020 µg/mL (≈ 0.0647 µM). Further, in the data set with NCI-H460, the “GI50 Lung-NSC NCI-H460” value came out at 0.0092 µg/mL (≈ 0.0297 µM). Besides, in the data set with KM20L2, the “GI50 Colon KM20L2” value amounted to 0.015 µg/mL (≈ 0.0485 µM). In the data set on DU-145, the “GI50 Prostate DU-145” value was determined as 0.0066 µg/mL (≈ 0.0213 µM). For the same molecule, in data set [2], the “cancer cell growth inhibitory activity (in words)” value was “strong cancer cell growth inhibitory activity”. For the same molecule, in data set [3], the GI50 is 12.6 nM. For the same molecule, the “activity against a range of RNA viruses” value in the data set on RNA viruses is listed as “strong activity”.
